Test results reported in US7879795B2, “Enhancement of tigecycline potency using efflux pump inhibitors” (Mpex Pharmaceuticals, Inc., priority 2004, dated 2011).

What was measured:
[1] = Tissue levels in rat six-hour after 8.4 mg/kg IV bolus; type: in vivo; settings: rat kidney, liver and lung; 8.4 mg/kg IV bolus; in words
Protocol: Tissue levels of compounds 1, 2, 3 and 4 were evaluated in kidney, liver and lung six-hour after 8.4 mg/kg IV bolus administration. FIG. 13 depicts the levels as a function of time.
Compound 67, which is the expected metabolite of proteolytic intracellular degradation of compound 3, was detected in rat tissues after IV infusion, confirming the tissue-specific degradation of compound 3 (Tables 9A, B).

Stability in human serum = type: in vitro ADME; settings: in words
Protocol: FIG. 9 compares the stability of compounds 1 and 3 in human serum as a function of time. Both compound 1 and compound 3 were stable after 18 hours of incubation with human serum.

[2] = In vitro stability in rat serum and tissue homogenates (LC/MS/MS); type: in vitro ADME; settings: for stability in tissue homogenates at pH lowered to about 6 versus no pH change: rat kidney, liver, lung homogenates, acetic acid
[3] = system: P. aeruginosa, PAM1723, overexpressing the MexAB-OprM efflux pump; assay: Levofloxacin potentiation checkerboard assay (broth microdilution); type: cell-based; settings: for MPC8: EPI concentration necessary to increase susceptibility to levofloxacin eight-fold
Procedure, shortened: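 Checkerboard of levofloxacin against efflux pump inhibitors (EPIs) in Mueller-Hinton broth (MHB), with the EPIs titrated down the rows. Plates were incubated 20 h at 35 °C; growth was read at 650 nm and also scored visually.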

[4] = system: P. aeruginosa overexpressing (strain PAM1723) or lacking (PAM1626) efflux pumps; assay: Stability in P. aeruginosa cultures; type: in vitro ADME; settings: 50 μg/ml, PAM1723 and PAM1626
Protocol: Overnight cultures of two different strains of P. aeruginosa overexpressing (strain PAM1723) or lacking (PAM1626) efflux pumps were incubated with compounds 1 or 3 at 50 μg/ml for various times. Compounds were extracted using 4% TCA and analysed by LC/MC/MC.

[5] = system: PAM 1753, MexEF-OprN over-expressed; assay: Tigecycline potentiation checkerboard assay, PAM 1753; type: cell-based, P. aeruginosa; design: Tigecycline MIC in the presence of Compound 21: unit not given here; settings: PAM 1753
Protocol: The ability of compound 21 to increase susceptibility to tigecycline was also assessed. The tigecycline potentiating activity of compound 21 was assessed by the checkerboard assay (Antimicrobial Combinations, Antibiotics in Laboratory Medicine, ed. Victor Lorian, M.D., Fourth edition, 1996, pp 333-338, which is incorporated herein by reference in its entirety) using a broth micro-dilution method performed as recommended by the CSLI (Clinical and Laboratory Standards Institute, formerly NCCLS) guidelines (National Committee for Clinical Laboratory Standards 2003. Methods for Dilution Antimicrobial Susceptibility Tests for Bacteria That Grow Aerobically—Sixth Edition; Approved Standard. NCCLS Document M7-A6, Vol 20 No. 2). In this assay, multiple dilutions of the two drugs, compound 21 and tigecycline, were tested alone and in combination, at concentrations equal to, above and below their respective minimal inhibitory concentrations (MICs). […] The stock solution was further diluted in Mueller Hinton Broth (MHB). Stock solutions were stored at −80° C.
The checkerboard assay was performed in microtiter plates. Tigecycline was diluted in the x axis, each column containing a single concentration of tigecycline. Compound 21 was diluted in the y axis, each row containing an equal concentration of the EPI. […] The assay was performed in MHB with a final bacterial inoculum of 5×10^5 CFU/ml (from an early-log phase culture). The microtiter plates were incubated for 20 hours at 35° C. and then read using a microtiter plate reader (Molecular Devices) at 650 nm, as well as by visual observation using a microtiter plate-reading mirror.

[6] = EPI 0 μg/ml (levofloxacin alone)

SMILES	tissue levels at 6 hours after IV injection [1]	stability after 18 hours of incubation with human serum (Stability in human serum)	stability in supernatant of rat kidney tissue homogenates ([2]; in words)	stability in tissue homogenates at pH lowered to about 6 versus no pH change [2]	Antibiotic (levofloxacin) MIC in the presence of EPI [3, 6]	Antibiotic (levofloxacin) MIC in the presence of EPI ([3]; EPI 1.25 μg/ml)	Antibiotic (levofloxacin) MIC in the presence of EPI ([3]; EPI 5 μg/ml)	Antibiotic (levofloxacin) MIC in the presence of EPI ([3]; EPI 10 μg/ml)	Antibiotic (levofloxacin) MIC in the presence of EPI ([3]; EPI 20 μg/ml)	Antibiotic (levofloxacin) MIC in the presence of EPI ([3]; EPI 40 μg/ml)	Antibiotic (levofloxacin) MIC in the presence of EPI ([3]; EPI 80 μg/ml)	Antibiotic (levofloxacin) MIC in the presence of EPI ([3]; EPI […])	MPC8 [3]	stability in cultures of tested bacterial strains [4]	further results
NCCC[C@@H](N)C(=O)N[C@H](CCc1ccccc1)C(=O)Nc1cnc2ccccc2c1 [Compound 1, 2-(R),5-Diamino-pentanoic acid [3-phenyl-1-(R)-(quinolin-3-ylcarbamoyl)-propyl]-amide]	relatively high levels	stable	neither compound 1 nor compound 4 show any instability	essentially unchanged	2 µg/mL	2 µg/mL	0.5 µg/mL	0.06 µg/mL	0.03 µg/mL	0.015 µg/mL	0.008 µg/mL	1 µg/mL	10 µg/mL	stable	compound left after 16 hrs of incubation ([2]; all of the tissues tested (rat serum, tissue homogenates), 37° C., 2 μg/ml): 70-80%; stability in all of the tissues tested ([2]; rat, in words): highly stable
NCCC[C@H](N)C(=O)N[C@H](CCc1ccccc1)C(=O)Nc1cnc2ccccc2c1 [Compound 3, 2-(S),5-Diamino-pentanoic acid [3-phenyl-1-(R)-(quinolin-3-ylcarbamoyl)-propyl]-amide]	very low level	stable	supernatant instability was selective to compound 3	degraded faster	2 µg/mL	2 µg/mL	0.25 µg/mL	0.03 µg/mL	0.015 µg/mL	0.015 µg/mL	0.015 µg/mL	1 µg/mL	10 µg/mL	stable	stability in supernatant versus pellet of kidney tissue homogenates ([2]; after 5 min. centrifugation): Greater instability; stability in rat serum ([2]; in words): at least as stable as 1; stability in kidney and liver ([2]; rat tissue homogenates, in words): more unstable than 1
NCCC[C@H](N)C(=O)N[C@H](Cc1ccc(C(F)(F)F)cc1)C(=O)Nc1cnc2ccccc2c1 [Compound 21, 2-(S),5-Diamino-pentanoic acid [1-(R)-(quinolin-3-ylcarbamoyl)-2-(4-trifluoromethyl-phenyl)-ethyl]amide]															Tigecycline MIC in the presence of Compound 21 ([5]; Compound 21 0.625 μg/ml): 1; Tigecycline MIC in the presence of Compound 21 ([5]; Compound 21 1.25 μg/ml): 1; Tigecycline MIC in the presence of Compound 21 ([5]; Compound 21 5 μg/ml): 0.25; Tigecycline MIC in the presence of Compound 21 ([5]; Compound 21 10 μg/ml): 0.25; Tigecycline MIC in the presence of Compound 21 ([5]; Compound 21 20 μg/ml): 0.25; Tigecycline MIC in the presence of Compound 21 ([5]; Compound 21 40 μg/ml): 0.25; Tigecycline MIC in the presence of Compound 21 ([5]; Compound 21 […]): 0.25
